{"source": "patent US20220056075A1", "about": "“METHOD FOR TREATING OPIOID USE DISORDER” (THE ADMINISTRATORS OF THE TULANE EDUCATIONAL FUND, priority 2019, published 2022)", "key": {"Male Sprague Dawley rats [1]": {"system": "Male Sprague Dawley rats", "assay": "Conditioned place preference (CPP), 5-day procedure", "format": "in vivo, rat", "settings": "5 days of conditioning, 1.8, 3.2, 5.6 mg/Kg i.v.", "method": "(§1) Conditioned Place Preference (CPP) and locomotor activity: Standard CPP chambers (TSE; Chesterfield, Mo.) were used to measure baseline activity and conditioning trials. Baseline activity was measured over 2 days with 4 trials per day (2 in the AM, and 2 in the PM) lasting 20 min each. […] Conditioning trials were conducted for 5 days and tested in an unbiased manner such that drug/environment pairings were counterbalanced for time of drug injection (AM or PM) and compartment (preferred or non-preferred) based on baseline activity. […] This indicates a lack of carry-over effects of drug between sessions. One day following the last conditioning trial, a 20 min test trial was conducted in the same manner as baseline trials in which rats were free to explore both compartments. Change in time spent exploring the drug-paired compartment (test-baseline) was used to indicate preference (or aversion) to the compartment. Approximately 20 min following the final session, rats were perfused and brain samples were taken for immunohistochemical analysis (below). Locomotor activity was assessed by infrared light beams located in the conditioning compartments and the start box. […] Data were recorded in meters and an assessment of locomotor sensitization was made by subtracting the first session from the final session.\n(§2) Experimenters were blinded to treatment groups."}, "rats": {"system": "rats", "settings": "cited from earlier work"}, "[2]": {"settings": "cumulative doses producing maximum antinociceptive effects; cited from earlier work"}, "male and female mice": {"system": "male and female mice", "settings": "acute, equi-antinociceptive doses"}, "male rats": {"system": "male rats", "assay": "Maintenance of established oxycodone self-administration (substitution)", "format": "in vivo, rat", "method": "Self-administration (SA): Self-administration tests were conducted in standard operant chambers (MED Associates, St. Albans, Vt.). Infusions were delivered through TYGON tubing threaded through metal spring leashes and attached to exterior infusion pumps. 3-hour sessions were conducted Monday-Friday during the dark cycle. At the start of each session, the house light was illuminated, and levers extended. […] For the first 5 sessions, rats were trained to lever press for oxycodone (0.1 mg/kg/infusion) on a FR1 reinforcement schedule. For the following 10 sessions, the dose of oxycodone was decreased to 0.05 mg/kg/infusion to increase lever responding.\nMaintenance of established oxycodone self-administration: Following acquisition of oxycodone self-administration, animals were split into treatment groups counterbalanced for total oxycodone intake, average number of infusions obtained in the last 3 sessions, and average number of active lever pressings over the last 3 sessions. Ten maintenance sessions were conducted in the same way as oxycodone acquisition except rats were either maintained on 0.1 mg/kg/infusion oxycodone or had drug availability substituted with equi-antinociceptive 1 mg/kg/infusion ZH853 or vehicle."}, "male and female rats": {"system": "male and female rats", "assay": "Naloxone-induced conditioned place aversion (CPA)", "format": "in vivo, rat", "settings": "i.v. morphine 5.6 mg/Kg or ZH853 4.2 mg/Kg, naloxone 1 mg/Kg s.c. 4 h later", "method": "Four hours later they received s.c. naloxone (1 mg/Kg) and were confined to one side of the apparatus (counterbalanced) for 20 min. The following day the animals received vehicle-then-saline rather than drug-then-naloxone. This cycle (drug+4 h+nlx+next day vehicle+saline) was repeated once, and the next day the animals had access to the entire apparatus (Post-cond).\nTo assess whether ZH853 induces the negative affect typical of opioid withdrawal, the conditioned place aversion (CPA) test was conducted."}, "[3]": {"system": "dopamine (DA) neurons in the posterior VTA", "assay": "VTA dopamine cell soma morphology (TH staining, STEREO INVESTIGATOR)", "format": "in vivo, rat", "settings": "5 consecutive daily i.v. injections; morphine effect at 5.6 mg/Kg", "method": "DA morphology analysis: Fifteen min following the final CPP test session, rats were anesthetized with a mixture of ketamine/xylazine (85/10 mg/Kg, i.p., respectively) and perfused intracardially with 200 mL of 0.1 mol/L phosphate buffered saline (PBS) immediately followed by 300 mL of 4% paraformaldehyde in 0.1 mol/L PBS (pH=7.4). Brains were removed and post-fixed at 4° C. in the same fixative for 18 h. After post-fixation, brains were incubated in 30% sucrose at 4° C. for 2 days and sectioned coronally on a cryostat at 40 μm at the level of the posterior VTA (Spiga et al., 2003; Chu et al., 2008). After 2 consecutive washes in PBS, sections were blocked with 5% normal donkey serum (NDS) for 1 h, and incubated with the primary antibody anti-tyrosine-hydroxylase (anti-TH, 1: 3000 Cell Signaling Technology, Danvers, Mass.) overnight at 4° C. Slices were washed twice in PBS, re-blocked for 1 h, and incubated with the secondary antibody ALEXA594 (Life Technologies, Carlsbad, Calif.), for 2 h. Sections were washed, mounted on slides with PROLONG GOLD (Life Technologies), and stored at 4° C. Posterior VTA sections were verified according to the atlas of Paxinos and Watson (2007). Images of the parabrachial pigmented area (PBP) and the paranigral area (PN) subregions of the posterior VTA were captured in z-stacks (1 μm) with at least 5 tissue slices per rat and 5-6 rats per drug group. STEREO INVESTIGATOR software (MBF Bioscience; Williston, Va.) was used to quantify soma size using the optical fractionator probe to survey a sample of neurons in each z-stack while the nucleator probe was used to measure the cross-sectional area and volume of each cell soma. The optical fractionator probe was used to quantify the number of cells in a particular section of tissue through systematic random sampling. Between 12 and 16 regions were surveyed per z-stack. While the optical fractionator probe utilized stereological techniques to select a random sample to be analyzed, the nucleator probe measured the cross-sectional area of each neuron. Therefore, the simultaneous use of these probes systematically assessed neurons in the PBP and PN regions of the VTA in each subject, and provided morphological data for these cells including surface area (μm^2) and volume (μm^3). Cell somas were eligible to be quantified if they were located within the counting frame and/or if the soma touched either of the nucleator frame's green borders. Neurons were ineligible if located outside the counting frame and/or if their soma touched the frame's red borders. After determining this optimum depth, the center of the soma was located and analyzed by the nucleator probe. To eliminate bias associated with tissue orientation, nucleator rays were randomly arranged between quantifications. […]"}, "Male Sprague Dawley rats [4]": {"system": "Male Sprague Dawley rats", "assay": "Locomotor sensitization during CPP conditioning sessions", "format": "in vivo, rat", "settings": "1.8, 3.2, 5.6 mg/Kg i.v., 5 daily injections, compared to vehicle", "method": "as §1, §2"}, "Male Sprague-Dawley rats": {"system": "Male Sprague-Dawley rats", "assay": "Reinstatement of morphine-induced conditioned place preference", "settings": "priming dose 1.8 mg/Kg, 20 min, vs baseline", "method": "Male Sprague-Dawley rats were exposed to a conditioned place preference (CPP) apparatus for two sessions to determine baseline (BL) preference for 2 distinct, unbiased chambers. […] The animals then underwent extinction procedures consisting of confinement for 45 min in the previously drug- and vehicle-paired chambers for 7 days."}}, "note": "Entries after “also recorded” stand apart in the source; their conditions may differ.", "data": [{"smiles": "NC(=O)CNC(=O)[C@@H]1CCC(=O)NCCCC[C@@H](NC(=O)[C@@H](N)Cc2ccc(O)cc2)C(=O)N[C@@H](Cc2c[nH]c3ccccc23)C(=O)N[C@@H](Cc2ccccc2)C(=O)N1", "note": "[ZH853, Tyr-c[D-Lys-Trp-Phe-Glu]-Gly-NH2]", "values": [{"measurement": "conditioned place preference (CPP) or aversion", "setting": "Male Sprague Dawley rats [1]", "result": "did not produce CPP (or aversion) at any dose"}, {"measurement": "hourly SA intake (peak)", "setting": "rats; 12-hour SA sessions, 3 mg/Kg/infusion", "result": 1.1, "unit": "mg/kg/h"}, {"measurement": "reinforcing effects in SA/CPP procedures", "setting": "rats; rat, in vivo", "result": "did not produce reinforcing effects in SA/CPP procedures"}, {"measurement": "motor impairment on the Rotarod", "setting": "[2]", "result": "lack of motor impairment"}, {"measurement": "distance traveled (AUC)", "setting": "male and female mice", "result": "did not affect the distance traveled"}, {"measurement": "self-administration behavior during maintenance sessions", "setting": "male rats; after acquisition of oxycodone SA, drug continued or substituted, i.v. infusions", "result": "the self-administration behavior extinguished over time; also recorded: reduced the number of infusions obtained (C) and active lever responses (D) over maintenance sessions"}, {"measurement": "rate of extinction of self-administration", "setting": "male rats; substitution for oxycodone", "result": "faster than with vehicle substitution"}, {"measurement": "naloxone-induced place aversion", "setting": "male and female rats", "result": "did not produce a place aversion"}, {"measurement": "surface area of TH-positive somas in pVTA", "setting": "[3]", "result": "did not alter"}, {"measurement": "volume of TH-positive somas in pVTA", "setting": "[3]", "result": "did not alter"}, {"measurement": "locomotor sensitization (LS), day 5 minus day 1", "setting": "Male Sprague Dawley rats [4]", "result": "did not produce LS at any dose tested"}, {"measurement": "reinstatement of morphine CPP after extinction", "setting": "Male Sprague-Dawley rats", "result": "scores not significantly different from baseline"}]}]}
